In patent publication US12642870B2, “Compositions and methods for delivery of nucleic acids” (Poseida Therapeutics, Inc., priority 2020, dated 2026):

Tests used:
[1] = tested on: HEK293T cells; assay: In vitro LNP delivery of eGFP mRNA to adherent cells; type: cell-based; conditions: 0.125 μg eGFP mRNA per well, 24 hr, flow cytometry, LNP 41.44/45.85/10.0/2.7, lipid:RNA 40:1
Procedure: HEK293T cells were seeded in 96 well plates and grown to 70% confluence in DMEM+10% FBS] under a 5% CO2 atmosphere at 37° C. A 0.125 μg amount of 5′-CleanCap-eGFP mRNA (TriLink Biotech) formulated with LNP compositions comprising COMPOUNDS 1-4 as prepared in Example 3 at the following percentages in Table 10 was added to each well.
After incubating for 24 hr, cells were imaged for GFP expression with a Leica fluorescence microscope and then detached from 96 well plate to quantitate expression by flow cytometry.

[2] = tested on: Resting T-cells; assay: LNP delivery of eGFP mRNA to resting T-cells; type: cell-based; conditions: eGFP mRNA LNPs 0.4144:0.4585:0.1:0.027, lipid:nucleic acid 40:1, 0.5 ug mRNA per well, 24 hrs
Procedure: In one experiment, LNPs of the present disclosure comprising one of COMPOUNDS 1-4, DOPE, Cholesterol and DMG-PEG2000 at a molar ratio of 0.4144:0.4585:0.1:0.027 and further comprising Cleancap mRNA encoding eGFP were formed on a NanoAssemblr® (Precision Nanosystems). […] Resting T-cells were treated with varying amounts of the four LNP composition and at 24 hrs, the cells were analyzed to determine the percentage of cells that were viable and that expressed […]. The results of the analysis are shown in Table 12 for a dose of 0.5 ug mRNA per well.

[3] = tested on: BALB/C mice; assay: In vivo intramuscular LNP delivery of fLuciferase mRNA, bioluminescent imaging; conditions: for Avg IM flux n = 2 / Ave flux (p/s): intramuscular 20 μg fLuciferase mRNA; for Avg IM flux n = 2: right hind limb, BLI at 4 hr, LNP compound/DOPE/Cholesterol/DMG-PEG2000 33.5/32.0/33.5/1.0, lipid:RNA 25:1; for Ave flux (p/s): LNP COMPOUND 2/DOPE/Cholesterol/DMG-PEG2000 32.411/32.411/32.411/2.77
Procedure: (§1) Adult female BALB/C mice (n=2/group) were intramuscularly administered in the right hind limb of each mouse 20 μg of 5′-CleanCap-fLuciferase mRNA (TriLink Biotech) formulated with LNP composition comprising COMPOUND 2 as prepared according to Example 2 in the following percentages shown in Table 16:
The location and extent of luciferase expression in treated and untreated mice were determined at 4 hr and 24 hr by bioluminescent imaging (BLI) of anesthetized mice using an IVIS Lumina in vivo imaging system (Perkin Elmer) according to the manufacturer's instructions. Briefly, mice were anesthetized using isoflurane in oxygen, and placed supine on a heated stage. Mice were then administered D-luciferin (Perkin-Elmer #122799) IP, and BLI was performed.
as §1, with “In another experiment, adult female” for “Adult female”, “comprising one of COMPOUNDS 3-8” for “comprising COMPOUND 2”, “Example 3” for “Example 2”, “Table 18:” for “Table 16:”
The location and extent of luciferase expression in treated and untreated mice were determined at 4 hr by bioluminescent imaging (BLI) of anesthetized mice as described above.

[4] = tested on: HEK293T cells; assay: In vitro LNP delivery of nano-pB-EF1a-GFP DNA to adherent cells; type: cell-based; conditions: 0.5 μg nano-pB-EF1a-GFP DNA per well in LNPs, flow cytometry
Procedure: HEK293T cells were seeded in 96 well plates and grown to 70% confluence in [DMEM+10% FBS] under a 5% CO2 atmosphere at 37° C. A 0.5 μg amount of nano-pB-EF1a-GFP DNA formulated with LNP compositions comprising COMPOUNDS 1, 3 & 4 as prepared in Examples 3 and 8 was added to each well. Following treatment with the LNPs, the cells were imaged for GFP+expression with a Leica fluorescence microscope and then detached from 96 well plate to quantitate expression by flow cytometry.

[5] = tested on: Resting T-cells; assay: LNP delivery of nano-pB-EF1a-GFP DNA to resting T-cells; type: cell-based; conditions: nano-pB-EF1a-GFP DNA LNPs 0.38:0.5:0.1:0.02, lipid:nucleic acid 45:1, 24 hr
Text: The experiments described in this example used CD4/CD8 positive T-cells isolated from a leukapheresis product from a healthy donor.

[6] = Physical characterisation of mRNA-containing LNPs (DLS, NTA, zeta potential); type: physicochemical; conditions: Fluc mRNA LNPs: compound/DOPE/Cholesterol/DMG-PEG2000 41.44/45.85/10/2.7, lipid:RNA 40:1 (w/w)
Procedure: A series of ten multi-component LNP compositions of the present disclosure comprising exemplary compounds of Formula (I) was prepared by combining various percentages of an exemplary compound of Formula (I), the phospholipid DOPE, the structural lipid cholesterol (Chol) and 1,2-dimyristoyl-sn-glycerol methoxypolyethylene glycol (DMG-PEG2000; Avanti Polar Lipids, Alabaster, Alabama, USA).
Individual 25 mg/ml stock solutions were prepared by solubilizing the lipids in 200-proof HPLC-grade ethanol and stock solutions were stored at −80° C. until formulated. At the time of formulation, the lipid stock solutions were briefly allowed to equilibrate to room temp and then placed on a hot plate maintained at a temperature range of 50-55° C.
A 1 mg/mi solution of the desired mRNA to be incorporated into the LNPs was added to 150 mM sodium acetate buffer (pH 5.2) to form a stock solution and kept on ice. The lipid phase was mixed with the aqueous m RNA phase inside a microfluidic chip using a NanoAssemblr® instrument (Precision Nanosystems, Vancouver, BC, Canada) according to the manufacturer's instructions to form LNP compositions comprising encapsulated mRNAs.
The resultant mRNA LNP compositions were then transferred to a Repligen Float-A-Lyzer dialysis device—having a molecular weight cut off (MWCO) of 8-10 kDa (Spectrum Chemical Mfg. Corp, CA, USA) and processed by dialysis against phosphate buffered saline (PBS) (dialysate:dialysis buffer volume at least 1:200 v/v), pH 7.4 overnight at 4° C. (or alternatively room temperature for at least 4 hours), to remove the 25% ethanol and achieve a complete buffer exchange. In some experiments the LNPs were further concentrated by in an Amicon® Ultra-4 centrifugal filter unit, MWCO-30 kDa (Millipore Sigma, USA) spun at ˜4100×g in an ultracentrifuge. The mRNA LNPs were then stored at 4° C. until further use.
A series of multicomponent LNP compositions comprising one of COMPOUNDS 1-8 described in Example 1 and the mRNA encoding flue was prepared according to Example 2 and the physical characteristics of the resulting LNPs were analyzed.
In a separate experiment, LNP compositions of the present disclosure comprising mRNA encoding firefly luciferase (hereafter “Fluc”; TriLink) and COMPOUNDS 1-8 were prepared as described in Example 2 by combining one of COMPOUNDS 1-8, the phospholipid DOPE, the structural lipid cholesterol (Chol) and 1,2-dimyristoyl-sn-glycerol methoxypolyethylene glycol (DMG-PEG2000) in the percentages presented in Table 8: […]

[7] = Physical characterisation of DNA-containing LNPs (DLS, NTA, zeta potential); type: physicochemical; conditions: nano-pB-EF1a-GFP DNA LNPs: compound/DOPE/Cholesterol/DMG-PEG2000 38.0/50.0/10.0/2.0, lipid:DNA 45:1 (w/w)
Procedure: LNP compositions of the present disclosure comprising DNA, a nanoplasmid encoding a piggyBac transposon, wherein the piggyBac transposon comprised GFP under control of the EF1a promoter (herein referred to as the nano-pB-EF1a-GFP), and one of COMPOUNDS 1-8 were prepared as described in Example 3 by combining one of COMPOUNDS 1-8, the phospholipid DOPE, the structural lipid cholesterol (Chol) and 1,2-dimyristoyl-sn-glycerol methoxypolyethylene glycol (DMG-PEG2000) in the following percentages in Table 20: […]

[8] = tested on: TF1a cells; assay: Genetic modification of suspension cell line by LNP-delivered nanoplasmid transposon; type: cell-based; conditions: TF1a cells stably expressing SPB transposase; nanoplasmid transposon LNP 0.38:0.5:0.1:0.02; Day 6, flow cytometry
Procedure: In general, TF1a cells (a suspension cell line) were engineered to stably express the SPB transposase. Cell were plated at 5e5/ml. LNP comprising a nanoplasmid transposon coding for eGFP under control of the EF1a […] were added to each well at a concentration of […] (0.125 ug total) of DNA per well. Medium was exchanged and cells were split by spinning cells down in a v-bottom plate and resuspending cells in fresh RPMI+10% FBS+2 ug/ml Puromycin media on D4 post LNP addition). Day=6, cells were assessed for GFP expression by epifluorescence microscopy and flow cytometry.
For example, LNP compositions comprising COMPOUND 3 were prepared comprising COMPOUND 3, DOPE, Cholesterol and DMG-PEG2000 at a molar ratio of 0.38:0.5:0.1:0.02 and the nanoplasmid transposon and cells were assessed at Day 6 for GFP expression by epifluorescence microscopy and flow cytometry.

SMILES | % Viable GFP+ [1] [%] | % Viable GFP+ [2] [%] | Avg IM flux n = 2 [3] | % Viable GFP+ [4] [%] | % Viable GFP+ [5] [%] | Diameter (DLS; nm) [6] [nm] | Diameter (NTA; nm) [6] [nm] | PDI [6] | Total Particles/ml [6] [Particles/ml] | Zeta Potential (mV) [6] [mV] | Diameter (DLS; nm) [7] [nm] | Diameter (NTA; nm) [7] [nm] | PDI [7] | Zeta Potential (mV) [7] [mV] | Ave flux (p/s) ([3]; Lipid:RNA 25:1, 4 hr) | Ave flux (p/s) ([3]; Lipid:RNA 25:1, 24 hr) | Ave flux (p/s) ([3]; Lipid:RNA 50:1, 4 hr) | Ave flux (p/s) ([3]; Lipid:RNA 50:1, 24 hr) | location of luciferase expression (BLI) ([3]; intramuscular 20 μg fLuciferase mRNA in right hind limb) | cells positive for GFP expression [8] [%]
CC(C)C(CCC1CCC(C(=O)NCCCCCCCCCCCCNC(=O)C2CCC(CCC(SCCN(C)C)C(C)C)C(SCCN(C)C)C2)CC1SCCN(C)C)SCCN(C)C (stereo not shown) [Compound 4] | 90.1 | 2.9 | 2.07E+6 | ~17.1 | 2.3 |  |  |  |  |  |  |  |  |  |  |  |  |  |  | 
CC(C)C(CCC1CCC(C(=O)NCCCCCCNC(=O)C2CCC(CCC(SCCN(C)C)C(C)C)C(SCCN(C)C)C2)CC1SCCN(C)C)SCCN(C)C (stereo not shown) [Compound 2] | 17.5 | 5.5 |  |  | 4.4 | 79.6 | 113.8 | 0.259 | 2.97E+10 | −0.19 | 80.6 | 105.0 | 0.221 | −0.02 | 4.58E+6 | 3.53E+6 | 9.67E+5 | 8.09E+5 | detected by BLI predominantly at the injection site | 
CC(C)C(CCC(C)C(CCC1CCC(C(=O)NCCCCCCCCCCCCNC(=O)C2CCC(CCC(SCCN(C)C)C(C)CCC(SCCN(C)C)C(C)C)C(SCCN(C)C)C2)CC1SCCN(C)C)SCCN(C)C)SCCN(C)C (stereo not shown) [Compound 3] | 19.4 | 10.9 | 5.8E+6 | 97.1 | 18.0 |  |  |  |  |  |  |  |  |  |  |  |  |  |  | ~9.8
